Where “and” joins values, the source holds several entries; their conditions need not be identical. Equal values may be shown once. Inconclusive results and toxic doses are left out.
Test system: P388 leukemia ip, CD2F1 mice, survival T/C
Test: NCI In Vivo Anticancer Drug Screen. Data for tumor model P388 Leukemia (intraperitoneal) in CD2F1 (CDF1) mice
Settings: endpoint: median survival time, higher = longer survival
How it was run: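 Mice carrying the transplanted tumor received test compound or vehicle. Survival was recorded in each group, and the value is the treated-group measurement divided by that of the vehicle-treated control group.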

[1] = dose: 50.0 mg/kg/injection, schedule: Q01DX009 (ip), vehicle: Klucel (hydroxypropylcellulose) (HPC)
[2] = dose: 100.0 mg/kg/injection, schedule: Q01DX009 (ip), vehicle: Klucel (hydroxypropylcellulose) (HPC)
[3] = dose: 200.0 mg/kg/injection, schedule: Q01DX009 (ip), vehicle: Klucel (hydroxypropylcellulose) (HPC)
[4] = dose: 50.0 mg/kg/injection, schedule: Q01DX005 (ip), vehicle: Klucel (hydroxypropylcellulose) (HPC)
[5] = dose: 100.0 mg/kg/injection, schedule: Q01DX005 (ip), vehicle: Klucel (hydroxypropylcellulose) (HPC)
[6] = dose: 200.0 mg/kg/injection, schedule: Q01DX005 (ip), vehicle: Klucel (hydroxypropylcellulose) (HPC)

## C[C@@H](CN1CC(=O)NC(=O)C1)N1CC(=O)NC(=O)C1
dose: 0.06 mg/kg/injection, schedule: Q01DX009 (ip), vehicle: Klucel (hydroxypropylcellulose) (HPC)
  T/C: 108 % of control
dose: 0.12 mg/kg/injection, schedule: Q01DX009 (ip), vehicle: Klucel (hydroxypropylcellulose) (HPC)
  T/C: 101 % of control
dose: 0.25 mg/kg/injection, schedule: Q01DX009 (ip), vehicle: Klucel (hydroxypropylcellulose) (HPC)
  T/C: 111 % of control
dose: 0.5 mg/kg/injection, schedule: Q01DX009 (ip), vehicle: Klucel (hydroxypropylcellulose) (HPC)
  T/C: 115 % of control
dose: 1.0 mg/kg/injection, schedule: Q01DX009 (ip), vehicle: Klucel (hydroxypropylcellulose) (HPC)
  T/C: 121 % of control
dose: 4.0 mg/kg/injection, schedule: Q01DX009 (ip), vehicle: Klucel (hydroxypropylcellulose) (HPC)
  T/C: 154 % of control
dose: 8.0 mg/kg/injection, schedule: Q01DX009 (ip), vehicle: Klucel (hydroxypropylcellulose) (HPC)
  T/C: 159 % of control
dose: 16.0 mg/kg/injection, schedule: Q01DX005 (iv), vehicle: suspension in saline
  T/C: 117 % of control
dose: 16.0 mg/kg/injection, schedule: Q01DX009 (ip), vehicle: Klucel (hydroxypropylcellulose) (HPC)
  T/C: 187 % of control
dose: 25.0 mg/kg/injection, schedule: Q01DX009 (ip), vehicle: Klucel (hydroxypropylcellulose) (HPC)
  T/C: 178 % of control
dose: 32.0 mg/kg/injection, schedule: Q01DX005 (iv), vehicle: suspension in saline
  T/C: 119 % of control
dose: 32.0 mg/kg/injection, schedule: Q01DX009 (ip), vehicle: Klucel (hydroxypropylcellulose) (HPC)
  T/C: 218 % of control
[1]
  T/C: 166 % of control and 221 % of control
dose: 64.0 mg/kg/injection, schedule: Q01DX009 (ip), vehicle: Klucel (hydroxypropylcellulose) (HPC)
  T/C: 218 % of control
[2]
  T/C: 200 % of control
dose: 128.0 mg/kg/injection, schedule: Q01DX005 (ip), vehicle: suspension in saline
  T/C: 161 % of control and 177 % of control
dose: 128.0 mg/kg/injection, schedule: Q01DX009 (ip), vehicle: Klucel (hydroxypropylcellulose) (HPC)
  T/C: 229 % of control
[3]
  T/C: 113 % of control and 92 % of control
dose: 256.0 mg/kg/injection, schedule: Q01DX001 (ip), vehicle: Klucel (hydroxypropylcellulose) (HPC)
  T/C: 97 % of control
dose: 256.0 mg/kg/injection, schedule: Q01DX005 (ip), vehicle: suspension in saline
  T/C: 194 % of control and 208 % of control
dose: 256.0 mg/kg/injection, schedule: Q01DX005 (iv), vehicle: suspension in saline
  T/C: 171 % of control and 180 % of control
dose: 400.0 mg/kg/injection, schedule: Q01DX009 (ip), vehicle: Klucel (hydroxypropylcellulose) (HPC)
  T/C: 92 % of control
dose: 512.0 mg/kg/injection, schedule: Q01DX001 (ip), vehicle: Klucel (hydroxypropylcellulose) (HPC)
  T/C: 122 % of control
dose: 512.0 mg/kg/injection, schedule: Q01DX005 (ip), vehicle: suspension in saline
  T/C: 177 % of control
dose: 512.0 mg/kg/injection, schedule: Q01DX005 (iv), vehicle: suspension in saline
  T/C: 171 % of control
dose: 600.0 mg/kg/injection, schedule: Q04DX003 (ip), vehicle: saline
  T/C: 205 % of control
dose: 2048.0 mg/kg/injection, schedule: Q01DX001 (ip), vehicle: Klucel (hydroxypropylcellulose) (HPC)
  T/C: 159 % of control

## Nc1nnc2nc(C3(c4nc5nnc(N)n5[nH]c4=O)Cc4ccccc4C3=O)c(=O)[nH]n12
dose: 50.0 mg/kg/injection, schedule: Q01DX005 (ip), vehicle: saline with Tween-80
  T/C: 91 % of control
dose: 100.0 mg/kg/injection, schedule: Q01DX005 (ip), vehicle: saline with Tween-80
  T/C: 100 % of control
dose: 200.0 mg/kg/injection, schedule: Q01DX005 (ip), vehicle: saline with Tween-80
  T/C: 108 % of control

## c1ccc(OCC(COc2ccccc2)(COc2ccccc2)COc2ccccc2)cc1
dose: 7.5 mg/kg/injection, schedule: Q01DX009 (ip), vehicle: saline with Tween-80
  T/C: 107 % of control
dose: 15.0 mg/kg/injection, schedule: Q01DX009 (ip), vehicle: saline with Tween-80
  T/C: 107 % of control
dose: 30.0 mg/kg/injection, schedule: Q01DX009 (ip), vehicle: saline with Tween-80
  T/C: 104 % of control

## NC(CS(=O)c1ccc(Cl)cc1)C(=O)O (stereo unspecified)
dose: 6.25 mg/kg/injection, schedule: Q01DX009 (ip), vehicle: saline with Tween-80
  T/C: 95 % of control
dose: 12.5 mg/kg/injection, schedule: Q01DX009 (ip), vehicle: saline with Tween-80
  T/C: 95 % of control
dose: 25.0 mg/kg/injection, schedule: Q01DX009 (ip), vehicle: saline with Tween-80
  T/C: 100 % of control

## CN(C)CCn1c2ccccc2c2cc([N+](=O)[O-])ccc21
[1]
  T/C: 102 % of control
[2]
  T/C: 105 % of control
[3]
  T/C: 108 % of control

## O=C(C(Cl)Cl)N1CCN(C(=O)C(Cl)Cl)CC1
[4]
  T/C: 102 % of control
[5]
  T/C: 110 % of control
[6]
  T/C: 105 % of control

## CC1(C)CC(=NNC(N)=S)CC(C)(C)N1
dose: 50.0 mg/kg/injection, schedule: Q01DX009 (ip), vehicle: saline
  T/C: 94 % of control
dose: 100.0 mg/kg/injection, schedule: Q01DX009 (ip), vehicle: saline
  T/C: 97 % of control
dose: 200.0 mg/kg/injection, schedule: Q01DX009 (ip), vehicle: saline
  T/C: 99 % of control

## COC1(OC)OC(c2ccc([N+](=O)[O-])cc2)=C(c2ccc([N+](=O)[O-])cc2)OC1(OC)OC
dose: 60.0 mg/kg/injection, schedule: Q01DX005 (ip), vehicle: Klucel (hydroxypropylcellulose) (HPC)
  T/C: 90 % of control
dose: 120.0 mg/kg/injection, schedule: Q01DX005 (ip), vehicle: Klucel (hydroxypropylcellulose) (HPC)
  T/C: 87 % of control

## COCCCNP(=S)(N1CC1)N1CC1
dose: 3.0 mg/kg/injection, schedule: Q04DX003 (ip), vehicle: saline
  T/C: 110 % of control
dose: 6.0 mg/kg/injection, schedule: Q04DX003 (ip), vehicle: saline
  T/C: 115 % of control
dose: 12.5 mg/kg/injection, schedule: Q01DX009 (ip), vehicle: saline
  T/C: 170 % of control
dose: 25.0 mg/kg/injection, schedule: Q04DX003 (ip), vehicle: saline with Tween-80
  T/C: 186 % of control

## Cc1[nH]c2ccc(N(C)C)cc2c(=O)c1CN1CCN(C)CC1
dose: 50.0 mg/kg/injection, schedule: Q01DX009 (ip), vehicle: saline with Tween-80
  T/C: 111 % of control
dose: 100.0 mg/kg/injection, schedule: Q01DX009 (ip), vehicle: saline with Tween-80
  T/C: 111 % of control
dose: 200.0 mg/kg/injection, schedule: Q01DX009 (ip), vehicle: saline with Tween-80
  T/C: 110 % of control

## CN1CC(=O)[O][Sn]([CH3])([CH3])[O]C(=O)C1
dose: 7.5 mg/kg/injection, schedule: Q01DX005 (ip), vehicle: Klucel (hydroxypropylcellulose) (HPC)
  T/C: 119 % of control
dose: 15.0 mg/kg/injection, schedule: Q01DX005 (ip), vehicle: Klucel (hydroxypropylcellulose) (HPC)
  T/C: 122 % of control
dose: 15.0 mg/kg/injection, schedule: Q01DX005 (ip), vehicle: saline with Tween-80
  T/C: 101 % of control
dose: 30.0 mg/kg/injection, schedule: Q01DX005 (ip), vehicle: Klucel (hydroxypropylcellulose) (HPC)
  T/C: 122 % of control
dose: 30.0 mg/kg/injection, schedule: Q01DX005 (ip), vehicle: saline with Tween-80
  T/C: 116 % of control

## NC(=Nc1ccc(Cl)cc1)NN=C(c1ccc(Cl)cc1)c1ccc(Cl)cc1
dose: 25.0 mg/kg/injection, schedule: Q04DX002 (ip), vehicle: saline with Tween-80
  T/C: 104 % of control
dose: 50.0 mg/kg/injection, schedule: Q04DX002 (ip), vehicle: saline with Tween-80
  T/C: 101 % of control
dose: 100.0 mg/kg/injection, schedule: Q04DX002 (ip), vehicle: saline with Tween-80
  T/C: 102 % of control
dose: 200.0 mg/kg/injection, schedule: Q04DX002 (ip), vehicle: saline with Tween-80
  T/C: 100 % of control
dose: 400.0 mg/kg/injection, schedule: Q04DX002 (ip), vehicle: saline with Tween-80
  T/C: 113 % of control

## N#C/C(N)=C(\C#N)N=c1c(-c2ccccc2)c1-c1ccccc1
[4]
  T/C: 102 % of control and 103 % of control
[5]
  T/C: 103 % of control and 113 % of control
[6]
  T/C: 109 % of control and 122 % of control

## Cc1[nH]c(=O)[nH]c(=O)c1/C=C/C(=O)NC(CO)CS(=O)CS(C)=O (stereo unspecified)
dose: 1.2 mg/kg/injection, schedule: Q01DX009 (ip), vehicle: water
  T/C: 119 % of control
dose: 2.2 mg/kg/injection, schedule: Q01DX009 (ip), vehicle: water
  T/C: 122 % of control
dose: 2.4 mg/kg/injection, schedule: Q01DX009 (ip), vehicle: water
  T/C: 119 % of control

## Cn1ccc(=Nc2ccc(NC(=O)c3ccc(N=c4ccn(C)c5ccc([N+](=O)[O-])cc45)cc3)cc2)cc1
dose: 3.13 mg/kg/injection, schedule: Q01DX009 (ip), vehicle: other
  T/C: 160 % of control
dose: 6.25 mg/kg/injection, schedule: Q01DX009 (ip), vehicle: other
  T/C: 188 % of control
dose: 12.5 mg/kg/injection, schedule: Q01DX009 (ip), vehicle: other
  T/C: 182 % of control
dose: 25.0 mg/kg/injection, schedule: Q01DX009 (ip), vehicle: other
  T/C: 179 % of control and 220 % of control
dose: 50.0 mg/kg/injection, schedule: Q01DX009 (ip), vehicle: other
  T/C: 168 % of control
dose: 100.0 mg/kg/injection, schedule: Q01DX009 (ip), vehicle: other
  T/C: 97 % of control
